# What was measured:
# [1] = biological target: T1, Leucine-rich repeat serine/threonine-protein kinase 2 (Homo sapiens, UniProt Q5S007); test: Inhibition of LRRK2 (unknown origin) at 3 uM by ADAPTA assay relative to control
# [2] = Kinetic solubility of compound in PBS at pH 7.4 at 200 uM incubated for 24 hrs by UPLC/MS analysis; type: physicochemical; conditions: read-out: Kinetic_solubility
# [3] = biological target: T1, Leucine-rich repeat serine/threonine-protein kinase 2; test: Inhibition of LRRK2 (unknown origin) by ADAPTA assay
# [4] = biological target: Leucine-rich repeat serine/threonine-protein kinase 2 (Homo sapiens, UniProt Q5S007, G2019S); test: Inhibition of LRRK2 G2019S mutant (unknown origin) by ADAPTA assay
# Chain of Leucine-rich repeat serine/threonine-protein kinase 2 (Homo sapiens, UniProt Q5S007, G2019S) (Q5S007 whole entry G2019S): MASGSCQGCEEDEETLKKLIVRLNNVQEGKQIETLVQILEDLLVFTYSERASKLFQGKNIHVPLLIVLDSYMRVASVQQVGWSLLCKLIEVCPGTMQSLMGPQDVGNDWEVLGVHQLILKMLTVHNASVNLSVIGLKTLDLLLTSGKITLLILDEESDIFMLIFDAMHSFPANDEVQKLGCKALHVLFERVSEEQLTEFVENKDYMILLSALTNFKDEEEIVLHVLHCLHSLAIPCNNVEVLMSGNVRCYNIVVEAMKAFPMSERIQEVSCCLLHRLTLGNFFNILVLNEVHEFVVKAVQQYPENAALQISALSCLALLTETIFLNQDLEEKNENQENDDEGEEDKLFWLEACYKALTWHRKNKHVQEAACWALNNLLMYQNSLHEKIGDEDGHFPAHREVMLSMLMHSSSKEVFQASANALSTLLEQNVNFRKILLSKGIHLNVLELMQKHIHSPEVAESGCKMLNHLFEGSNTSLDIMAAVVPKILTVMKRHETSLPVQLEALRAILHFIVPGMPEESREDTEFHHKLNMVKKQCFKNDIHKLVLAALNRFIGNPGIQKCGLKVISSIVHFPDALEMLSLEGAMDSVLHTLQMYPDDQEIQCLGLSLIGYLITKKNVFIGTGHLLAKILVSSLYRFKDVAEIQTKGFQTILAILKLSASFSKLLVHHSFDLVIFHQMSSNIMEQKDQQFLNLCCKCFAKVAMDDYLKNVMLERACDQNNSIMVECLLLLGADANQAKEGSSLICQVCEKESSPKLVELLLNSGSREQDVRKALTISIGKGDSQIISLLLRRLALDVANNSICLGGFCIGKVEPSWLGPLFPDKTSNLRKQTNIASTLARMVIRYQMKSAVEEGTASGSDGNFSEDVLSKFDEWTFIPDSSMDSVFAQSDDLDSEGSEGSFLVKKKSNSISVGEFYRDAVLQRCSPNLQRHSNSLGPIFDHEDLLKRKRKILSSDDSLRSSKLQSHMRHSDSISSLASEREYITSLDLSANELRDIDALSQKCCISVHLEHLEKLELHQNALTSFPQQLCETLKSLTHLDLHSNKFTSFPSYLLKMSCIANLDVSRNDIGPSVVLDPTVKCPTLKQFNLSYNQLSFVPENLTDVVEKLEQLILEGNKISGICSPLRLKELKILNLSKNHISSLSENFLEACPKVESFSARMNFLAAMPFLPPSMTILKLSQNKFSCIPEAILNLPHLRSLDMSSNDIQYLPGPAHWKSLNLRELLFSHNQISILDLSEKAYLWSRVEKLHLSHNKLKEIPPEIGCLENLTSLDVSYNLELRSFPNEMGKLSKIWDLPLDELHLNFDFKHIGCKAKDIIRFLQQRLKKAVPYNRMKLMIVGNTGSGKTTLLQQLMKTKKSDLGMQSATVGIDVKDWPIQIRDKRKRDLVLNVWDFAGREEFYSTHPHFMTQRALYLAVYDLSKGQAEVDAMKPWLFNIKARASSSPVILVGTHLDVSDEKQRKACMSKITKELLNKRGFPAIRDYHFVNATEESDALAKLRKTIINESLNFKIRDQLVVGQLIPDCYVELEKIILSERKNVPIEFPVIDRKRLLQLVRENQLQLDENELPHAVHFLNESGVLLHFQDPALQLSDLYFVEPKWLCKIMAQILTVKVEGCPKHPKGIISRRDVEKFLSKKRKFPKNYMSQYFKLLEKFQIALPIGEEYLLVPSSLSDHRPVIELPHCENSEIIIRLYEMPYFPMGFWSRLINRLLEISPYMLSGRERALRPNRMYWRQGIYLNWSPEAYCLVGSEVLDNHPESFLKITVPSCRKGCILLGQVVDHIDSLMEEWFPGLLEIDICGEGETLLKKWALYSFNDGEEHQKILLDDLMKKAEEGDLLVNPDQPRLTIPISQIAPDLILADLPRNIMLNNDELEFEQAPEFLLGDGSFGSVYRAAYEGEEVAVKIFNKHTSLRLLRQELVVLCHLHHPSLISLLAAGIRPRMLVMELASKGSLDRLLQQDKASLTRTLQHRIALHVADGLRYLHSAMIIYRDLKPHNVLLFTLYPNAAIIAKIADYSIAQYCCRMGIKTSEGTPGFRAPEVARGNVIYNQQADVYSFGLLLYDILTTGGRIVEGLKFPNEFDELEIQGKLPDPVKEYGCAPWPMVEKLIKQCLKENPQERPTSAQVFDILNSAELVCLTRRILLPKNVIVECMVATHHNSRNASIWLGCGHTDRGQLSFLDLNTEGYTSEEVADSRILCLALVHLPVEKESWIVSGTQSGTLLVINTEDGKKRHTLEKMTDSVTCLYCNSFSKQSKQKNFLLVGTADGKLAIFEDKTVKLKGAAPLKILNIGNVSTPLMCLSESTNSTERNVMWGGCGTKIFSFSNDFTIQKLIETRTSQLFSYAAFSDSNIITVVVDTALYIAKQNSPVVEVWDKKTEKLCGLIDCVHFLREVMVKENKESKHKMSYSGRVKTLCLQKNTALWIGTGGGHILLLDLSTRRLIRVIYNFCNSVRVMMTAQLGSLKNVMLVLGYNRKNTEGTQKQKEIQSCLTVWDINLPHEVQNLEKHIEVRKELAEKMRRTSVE
# [5] = biological target: T2, Mitogen-activated protein kinase 9 (Homo sapiens, UniProt P45984); test: Inhibition of JNK2 (unknown origin) by Z-lyte assay
# [6] = biological target: Testis-specific serine/threonine-protein kinase 2 (Homo sapiens, UniProt Q96PF2); test: Inhibition of TSSK2 (unknown origin) by Z-lyte assay
# Chain of Testis-specific serine/threonine-protein kinase 2 (Q96PF2 whole entry): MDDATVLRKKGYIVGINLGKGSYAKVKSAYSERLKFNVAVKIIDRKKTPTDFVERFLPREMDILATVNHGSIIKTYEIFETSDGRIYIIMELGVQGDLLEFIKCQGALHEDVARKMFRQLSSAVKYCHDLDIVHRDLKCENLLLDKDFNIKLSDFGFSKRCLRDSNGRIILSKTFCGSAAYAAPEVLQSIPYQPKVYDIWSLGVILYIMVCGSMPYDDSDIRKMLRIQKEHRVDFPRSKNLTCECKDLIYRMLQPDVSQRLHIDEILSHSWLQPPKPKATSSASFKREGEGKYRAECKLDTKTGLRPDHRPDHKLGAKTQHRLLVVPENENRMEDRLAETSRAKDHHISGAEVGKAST
# [7] = biological target: Testis-specific serine/threonine-protein kinase 1 (Homo sapiens, UniProt Q9BXA7); test: Inhibition of TSSK1 (unknown origin) by Z-lyte assay
# Chain of Testis-specific serine/threonine-protein kinase 1 (Q9BXA7 whole entry): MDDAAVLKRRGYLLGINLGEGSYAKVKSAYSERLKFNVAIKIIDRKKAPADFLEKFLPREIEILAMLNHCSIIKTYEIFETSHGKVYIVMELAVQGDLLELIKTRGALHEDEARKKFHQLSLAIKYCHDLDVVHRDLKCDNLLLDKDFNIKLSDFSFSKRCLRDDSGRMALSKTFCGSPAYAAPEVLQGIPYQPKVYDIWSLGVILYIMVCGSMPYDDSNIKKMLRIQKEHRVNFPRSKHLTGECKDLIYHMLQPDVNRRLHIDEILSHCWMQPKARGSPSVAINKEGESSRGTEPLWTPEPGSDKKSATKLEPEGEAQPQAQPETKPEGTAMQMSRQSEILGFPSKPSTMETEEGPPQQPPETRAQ
# [8] = species: Homo sapiens; test: Selectivity index, ratio of IC50 for inhibition of CHK2 (unknown origin) to IC50 for inhibition of TTK (unknown origin)
# [9] = species: Homo sapiens; test: Selectivity ratio of IC50 for inhibition of LRRK2 (unknown origin) to IC50 for inhibition of TTK (unknown origin)
# [10] = species: Homo sapiens; test: Selectivity ratio of IC50 for inhibition of JNK1 (unknown origin) to IC50 for inhibition of TTK (unknown origin)
# [11] = species: Homo sapiens; test: Selectivity ratio of IC50 for inhibition of MAPKAPK3 (unknown origin) to IC50 for inhibition of TTK (unknown origin)
# [12] = species: Homo sapiens; test: Selectivity ratio of IC50 for inhibition of N1-SRC (unknown origin) to IC50 for inhibition of TTK (unknown origin)
# [13] = species: Homo sapiens; test: Selectivity ratio of IC50 for inhibition of TSSK1 (unknown origin) to IC50 for inhibition of TTK (unknown origin)
# [14] = biological target: T3, Dual specificity protein kinase TTK (Homo sapiens, UniProt P33981); test: Inhibition of TTK autophosphorylation at T686 residue in human CAL-51 cells measured after 1 hr by Western blot analysis; type: cell-based
# T3 sequence (P33981 whole entry): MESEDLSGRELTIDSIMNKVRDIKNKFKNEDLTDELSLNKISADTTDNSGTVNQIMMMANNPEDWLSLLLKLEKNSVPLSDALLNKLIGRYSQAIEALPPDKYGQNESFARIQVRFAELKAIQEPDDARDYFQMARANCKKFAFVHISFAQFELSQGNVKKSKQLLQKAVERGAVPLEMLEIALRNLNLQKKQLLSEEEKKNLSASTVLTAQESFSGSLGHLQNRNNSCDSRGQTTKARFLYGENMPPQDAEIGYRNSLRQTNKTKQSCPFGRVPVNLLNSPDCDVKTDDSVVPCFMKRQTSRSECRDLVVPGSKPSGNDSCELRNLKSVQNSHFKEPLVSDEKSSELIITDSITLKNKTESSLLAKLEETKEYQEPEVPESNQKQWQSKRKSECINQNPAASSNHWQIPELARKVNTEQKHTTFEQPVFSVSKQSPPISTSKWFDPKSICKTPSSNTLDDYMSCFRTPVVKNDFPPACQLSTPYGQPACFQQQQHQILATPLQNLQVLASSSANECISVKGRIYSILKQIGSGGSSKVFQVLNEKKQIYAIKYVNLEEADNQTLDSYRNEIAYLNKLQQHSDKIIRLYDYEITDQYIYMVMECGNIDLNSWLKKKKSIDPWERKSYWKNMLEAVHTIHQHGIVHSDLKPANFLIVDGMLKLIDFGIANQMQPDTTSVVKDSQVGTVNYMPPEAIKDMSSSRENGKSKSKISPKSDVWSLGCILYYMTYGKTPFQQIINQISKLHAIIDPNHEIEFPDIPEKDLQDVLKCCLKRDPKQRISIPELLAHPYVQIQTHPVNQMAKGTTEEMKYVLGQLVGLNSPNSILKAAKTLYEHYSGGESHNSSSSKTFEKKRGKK
# [15] = Inhibition of KNL1 autophosphorylation at T943 residue in human CAL-51 cells measured after 1 hr by Western blot analysis; type: cell-based; conditions: CAL-51, 1 h
# [16] = Clearance in mouse at 2 mg/kg, iv; type: ADME, organism-based; conditions: in vivo
# [17] = Volume of distribution at steady state in mouse at 2 mg/kg, iv; type: ADME, organism-based; conditions: in vivo, read-out: Vdss
# [18] = AUC in mouse at 2 mg/kg, iv; type: ADME, organism-based; parameters: dose 2 mg/kg; conditions: in vivo
# [19] = Antitumor activity against human CAL-51 cells xenografted in CB17-SCID mouse assessed as tumor growth inhibition at 30 to 50 mg/kg, iv administered once per week for 16 days relative to control; type: functional; conditions: dose 30-50 mg/kg, time 16 day
# [20] = Toxicity in CB17-SCID mouse xenografted with human TNBC PDX-CAL-51 cells assessed as body weight loss at 80 mg/kg, iv administered once per week for 3 weeks; type: organism-based; conditions: in vivo, 504 h
# [21] = test system: Leucine-rich repeat serine/threonine-protein kinase 2 (Homo sapiens), Q5S007 [G2019S]; test: Inhibition of LRRK2 G2019S mutant (unknown origin) at 3 uM by ADAPTA assay relative to control
# Chain of Leucine-rich repeat serine/threonine-protein kinase 2 (Homo sapiens), Q5S007 [G2019S] (Q5S007 whole entry G2019S): as the sequence (Q5S007 whole entry G2019S) above
# [22] = biological target: Mitogen-activated protein kinase 8 (Homo sapiens, UniProt P45983); test: Inhibition of JNK1 (unknown origin) at 3 uM by Z-lyte assay relative to control
# [23] = biological target: T2, Mitogen-activated protein kinase 9; test: Inhibition of JNK2 (unknown origin) at 3 uM by Z-lyte assay relative to control
# [24] = biological target: Proto-oncogene tyrosine-protein kinase Src (Homo sapiens, UniProt P12931); test: Inhibition of SRC N1 (unknown origin) at 3 uM by Z-lyte assay relative to control
# Chain of Proto-oncogene tyrosine-protein kinase Src (P12931 2-536 limits assumed): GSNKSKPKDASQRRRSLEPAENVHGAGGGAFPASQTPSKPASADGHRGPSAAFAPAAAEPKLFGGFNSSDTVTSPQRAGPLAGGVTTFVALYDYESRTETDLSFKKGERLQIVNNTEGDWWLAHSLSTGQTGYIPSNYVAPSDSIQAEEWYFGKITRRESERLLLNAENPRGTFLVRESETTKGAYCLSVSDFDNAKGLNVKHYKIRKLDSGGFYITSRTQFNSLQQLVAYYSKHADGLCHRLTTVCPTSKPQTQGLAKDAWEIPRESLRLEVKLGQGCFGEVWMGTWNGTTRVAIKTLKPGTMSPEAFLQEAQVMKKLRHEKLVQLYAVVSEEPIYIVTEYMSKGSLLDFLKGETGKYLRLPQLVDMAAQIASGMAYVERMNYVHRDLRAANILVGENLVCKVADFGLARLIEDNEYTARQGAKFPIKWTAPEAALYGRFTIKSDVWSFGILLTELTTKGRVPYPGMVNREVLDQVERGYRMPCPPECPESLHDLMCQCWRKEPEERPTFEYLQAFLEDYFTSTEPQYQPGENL
# [25] = biological target: Testis-specific serine/threonine-protein kinase 2 (Homo sapiens) (UniProt Q96PF2); test: Inhibition of TSSK2 (unknown origin) at 3 uM by Z-lyte assay relative to control
# Chain of Testis-specific serine/threonine-protein kinase 2 (Homo sapiens) (Q96PF2 whole entry): as the sequence (Q96PF2 whole entry) above
# [26] = biological target: Testis-specific serine/threonine-protein kinase 1 (Homo sapiens) (UniProt Q9BXA7); test: Inhibition of TSSK1 (unknown origin) at 3 uM by Z-lyte assay relative to control
# Chain of Testis-specific serine/threonine-protein kinase 1 (Homo sapiens) (Q9BXA7 whole entry): as the sequence (Q9BXA7 whole entry) above
# [27] = biological target: Cytochrome P450 2C8 (Homo sapiens, UniProt P10632); test: Time dependent inhibition of CYP2C8 in human liver microsomes; type: ADME
# [28] = biological target: Voltage-gated inwardly rectifying potassium channel KCNH2 (Homo sapiens, UniProt Q12809); test: Inhibition of hERG
# [29] = species: Homo sapiens; test: Inhibition of Bombesin receptor (unknown origin) at 10 uM relative to control
# [30] = biological target: Substance-P receptor (Homo sapiens) (UniProt P25103); test: Inhibition of Neurokinin NK1 receptor (unknown origin) at 10 uM relative to control
# Chain of Substance-P receptor (Homo sapiens) (P25103 whole entry): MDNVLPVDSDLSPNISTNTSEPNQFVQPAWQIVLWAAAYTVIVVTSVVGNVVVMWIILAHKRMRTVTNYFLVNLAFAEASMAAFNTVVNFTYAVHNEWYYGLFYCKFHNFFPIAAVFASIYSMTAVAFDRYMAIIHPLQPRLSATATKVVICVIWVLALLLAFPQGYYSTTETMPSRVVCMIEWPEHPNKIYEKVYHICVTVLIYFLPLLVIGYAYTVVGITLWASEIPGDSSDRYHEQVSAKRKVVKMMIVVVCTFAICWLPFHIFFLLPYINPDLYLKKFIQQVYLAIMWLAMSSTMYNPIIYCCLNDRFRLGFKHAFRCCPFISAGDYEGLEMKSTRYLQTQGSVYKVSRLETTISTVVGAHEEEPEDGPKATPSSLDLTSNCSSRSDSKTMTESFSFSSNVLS
# [31] = biological target: Substance-K receptor (Homo sapiens) (UniProt P21452); test: Inhibition of Neurokinin NK2 receptor (unknown origin) at 10 uM relative to control
# T1 sequence (Q5S007 whole entry): as the sequence (Q5S007 whole entry G2019S) above, with S2019G counted along it
compound,measurement,setting,value
CCc1cccc(CC)c1N1CCn2cc(-c3nc(Nc4ccc(N5CCC(C(=O)N6CC7(CN(C)C7)C6)CC5)cc4OC)nc4[nH]ccc34)cc2C1=O,inhibition,[1],> 80%
same,"solubility kinetic at 24 h, 200 µM",[2],180 µM
same,IC50,[3],342 nM
same,IC50,[4],229 nM
same,IC50,[5],602 nM
same,IC50,[6],944 nM
same,IC50,[7],35 nM
same,Ratio IC50,[8],182
same,Ratio IC50,[9],114
same,Ratio IC50,[10],64
same,Ratio IC50,[11],493
same,Ratio IC50,[12],433
same,Ratio IC50,[13],11.7
same,IC50,[14],74 nM
same,IC50,[15],48 nM
same,clearance,[16],8.8 mL/min/kg
same,Vd,[17],0.53 L/kg
same,AUC,[18],5.29 µM·h
same,TGI,[19],>60%
same,Activity,[20],Non-Toxic
same,inhibition,[21],> 80%
same,inhibition,[22],> 80%
same,inhibition,[23],> 80%
same,inhibition,[24],> 80%
same,inhibition,[25],> 80%
same,inhibition,[26],> 80%
same,IC50,[27],> 30 µM
same,IC50,[28],> 30 µM
same,inhibition,[29],80%
same,inhibition,[30],80%
same,inhibition,[31],80%
